According to patent US4572908A, “Dihydropyridines” (Pfizer Inc., priority 1982, dated 1986):

Test system: rat aorta
Test: inhibition of calcium-induced contraction (change in tension) of spirally cut strips of rat aorta in K+ 45 mM saline
Format: cell-based
Details: 0.75 h, 45 millimolar potassium, 2 millimolar calcium, 45 minutes, read-out: IC50 (molar concentration required to reduce the response by 50%)
Method: The ability of the compounds to inhibit the movement of calcium into the cell is shown by their effectiveness in reducing the response of isolated heart tissue to an increase in calcium ion concentration in vitro. The test is performed by mounting spirally cut strips of rat aorta with one end fixed and the other attached to a force transducer. The tissue is immersed in a bath of physiological saline solution containing potassium ions at a concentration of 45 millimolar and no calcium. Calcium chloride is added to the bath with a pipette to give a final calcium ion concentration of 2 millimolar. The change in tension caused by the resulting contraction of the tissue is noted. The bath is drained and replaced with fresh saline solution and, after 45 minutes, the test is repeated with the particular compound under test present in the saline solution. The concentration of compound required to reduce the response by 50% (IC50) is recorded.
The molar concentrations of the compounds required to reduce the response by 50% in the test specified on pages 16-17 are given below (1M=1 gm.Mole/liter).

IC50 [nM]	Structure (SMILES)
8.31	CCOC(=O)C1=C(COCCNc2nc(-c3ccccc3)cc(=O)[nH]2)NC(C)=C(C(=O)OC)C1c1cccc(Cl)c1Cl (centres unmarked) [Example 43]
6.3	CCOC(=O)C1=C(COCCNc2cncc(Cl)n2)NC(C)=C(C(=O)OC)C1c1ccccc1Cl (centres unmarked) [Example 33]
3.72	CCOC(=O)C1=C(COCCNc2nccc(=O)[nH]2)NC(C)=C(C(=O)OC)C1c1cccc(C(F)(F)F)c1Cl (centres unmarked) [Example 59]
10	CCOC(=O)C1=C(COCCNC2=NCC(=O)N2)NC(C)=C(C(=O)OC)C1c1cccc(Cl)c1Cl (centres unmarked) [Example 37]
4.07	CCOC(=O)C1=C(COCCNc2cc(N3CCCCC3)ncn2)NC(C)=C(C(=O)OC)C1c1cccc(Cl)c1Cl (centres unmarked) [Example 82]
13.1	CCOC(=O)C1=C(COCCNc2nc(N)c3cc(OC)c(OC)cc3n2)NC(C)=C(C(=O)OC)C1c1ccccc1Cl (centres unmarked) [Example 34]
100	CCOC(=O)C1=C(COCCNc2ncnc3[nH]cnc23)NC(C)=C(C(=O)OC)C1c1ccccc1Cl (centres unmarked) [Example 16]
426	CCOC(=O)C1=C(COCCNc2nc(N)nc(N)n2)NC(C)=C(C(=O)OC)C1c1ccccc1Cl (centres unmarked) [Example 11]
0.501	CCOC(=O)C1=C(COCCNc2cnccn2)NC(C)=C(C(=O)OC)C1c1cccc(Cl)c1Cl (centres unmarked) [Example 89, 4-(2,3-Dichlorophenyl)-3-ethoxycarbonyl-5-methoxycarbonyl-6-methyl-2-[2-(pyrazin-2-ylamino)ethoxymethyl]-1,4-dihydropyridine]
29.5	CCOC(=O)C1=C(COCCNc2nc(N)c3cc(OC)c(OC)cc3n2)NC(C)=C(C(=O)OC)C1c1cccc(Cl)c1Cl (centres unmarked) [Example 48]
10.5	CCOC(=O)C1=C(COCCNc2nccc(=O)[nH]2)NC(C)=C(C(=O)OC)C1c1ccccc1Cl (centres unmarked) [Example 8, 4-(2-Chlorophenyl)-3-ethoxycarbonyl-5-methoxycarbonyl-6-methyl-2-[2-(3,4-dihydro-4-oxo-pyrimidin-2-ylamino)ethoxymethyl]-1,4-dihydropyridine]
45.7	CCOC(=O)C1=C(COCCNc2ncccc2C(N)=O)NC(C)=C(C(=O)OC)C1c1ccccc1Cl (centres unmarked) [Example 25]
6.6	CCOC(=O)C1=C(COCCNc2nc(NC(=O)NC)n(C)n2)NC(C)=C(C(=O)OC)C1c1ccccc1Cl (centres unmarked) [Example 79, hydrate]
31.6	CCOC(=O)C1=C(COCCNc2ccnc(Cl)n2)NC(C)=C(C(=O)OC)C1c1ccccc1Cl (centres unmarked) [Example 18]
5.75	CCOC(=O)C1=C(COCCNc2ccc(S(N)(=O)=O)cn2)NC(C)=C(C(=O)OC)C1c1ccccc1Cl (centres unmarked) [Example 35]
2.24	CCOC(=O)C1=C(COCCNc2nc(C)cc(=O)[nH]2)NC(C)=C(C(=O)OC)C1c1cccc(C(F)(F)F)c1Cl (centres unmarked) [Example 61]
3.47	CCOC(=O)C1=C(COCCNc2noc(N)n2)NC(C)=C(C(=O)OC)C1c1cccc(C(F)(F)F)c1Cl (centres unmarked) [Example 7]
1.35	CCOC(=O)C1=C(COCCNc2cc[nH]c(=O)n2)NC(C)=C(C(=O)OC)C1c1cccc(C(F)(F)F)c1Cl (centres unmarked) [Example 62]
6.3	CCOC(=O)C1=C(COCCNc2ccnc(N)n2)NC(C)=C(C(=O)OC)C1c1ccccc1Cl (centres unmarked) [Example 13]
3.71	CCOC(=O)C1=C(COCCNc2ncc(S(=O)(=O)N(C)C)s2)NC(C)=C(C(=O)OC)C1c1ccccc1Cl (centres unmarked) [Example 26]
25.1	CCOC(=O)C1=C(COCCNC2=NC(C)(C)C(=O)N2)NC(C)=C(C(=O)OC)C1c1cccc(Cl)c1Cl (centres unmarked) [Example 38]
1.2	CCOC(=O)C1=C(COCCNc2cc(OC)ncn2)NC(C)=C(C(=O)OC)C1c1cccc(Cl)c1Cl (centres unmarked) [Example 54]
3.02	CCOC(=O)C1=C(COCCNc2nc(N)n(C)n2)NC(C)=C(C(=O)OC)C1c1cccc(Cl)c1Cl (centres unmarked) [Example 5]
8.12	CCOC(=O)C1=C(COCCNc2nc(N)n(C)n2)NC(C)=C(C(=O)OC)C1c1ccccc1Cl (centres unmarked) [Example 4]
2.51	CCOC(=O)C1=C(COCCNc2nccnc2Cl)NC(C)=C(C(=O)OC)C1c1cccc(Cl)c1Cl (centres unmarked) [Example 51]
10	CCOC(=O)C1=C(COCCNc2nc(C)cc(=O)[nH]2)NC(C)=C(C(=O)OC)C1c1ccccc1Cl (centres unmarked) [Example 24]
3.98	CCOC(=O)C1=C(COCCNc2nccc(N)n2)NC(C)=C(C(=O)OC)C1c1ccccc1Cl (centres unmarked) [Example 27]

IC50 [nM]	Structure (SMILES)
4.4	CCOC(=O)C1=C(COCCNc2nc(C(=O)OCC)cs2)NC(C)=C(C(=O)OC)C1c1ccccc1Cl (centres unmarked) [Example 73]
2.24	CCOC(=O)C1=C(COCCNc2n[s+]([O-])nc2OC)NC(C)=C(C(=O)OC)C1c1cccc(C(F)(F)F)c1Cl (centres unmarked) [Example 66]
15.8	CCOC(=O)C1=C(COCCNc2nccnc2Cl)NC(C)=C(C(=O)OC)C1c1ccccc1Cl (centres unmarked) [Example 32]
1	CCOC(=O)C1=C(COCCNc2ncc(O)c(C)n2)NC(C)=C(C(=O)OC)C1c1cccc(Cl)c1Cl (centres unmarked) [Example 91A, 4-(2,3-dichlorophenyl)-3-ethoxycarbonyl-2-[2-(5-hydroxy-4-methylpyrimidin-2-ylamino)ethoxymethyl]-5-methoxycarbonyl-6-methyl-1,4-dihydropyridine]
18.1	CCOC(=O)C1=C(COCCNc2nccc(C(N)=O)n2)NC(C)=C(C(=O)OC)C1c1ccccc1Cl (centres unmarked) [Example 29]
50.1	CCOC(=O)C1=C(COCCNc2cc(=O)n(C)c(=O)n2C)NC(C)=C(C(=O)OC)C1c1ccccc1Cl (centres unmarked) [Example 15]
2.23	CCOC(=O)C1=C(COCCNc2ccnc(N)n2)NC(C)=C(C(=O)OC)C1c1cccc(Cl)c1Cl (centres unmarked) [Example 40]
1.09	CCOC(=O)C1=C(COCCNc2ccc(S(=O)(=O)N3CCOCC3)cn2)NC(C)=C(C(=O)OC)C1c1cccc(Cl)c1Cl (centres unmarked) [Example 45]
10	CCOC(=O)C1=C(COCCNc2n[s+]([O-])nc2OC)NC(C)=C(C(=O)OC)C1c1cccc(Cl)c1Cl (centres unmarked) [Example 64, 3-{2-[(4-{2,3-Dichlorophenyl}-3-ethoxycarbonyl-5-methoxycarbonyl-6-methyl-1,4-dihydropyrid-2-yl)methoxy]ethylamino}-4-methoxy-1,2,5-thiadiazole-1-oxid]
20	CCOC(=O)C1=C(COCCNC2=NC(=O)CS2)NC(C)=C(C(=O)OC)C1c1ccccc1Cl (centres unmarked) [Example 74]
3.01	CCOC(=O)C1=C(COCCNc2ccc(S(=O)(=O)N3CCCCC3)cn2)NC(C)=C(C(=O)OC)C1c1cccc(Cl)c1Cl (centres unmarked) [Example 46]
10	CCOC(=O)C1=C(COCCNc2nccs2)NC(C)=C(C(=O)OC)C1c1ccccc1Cl (centres unmarked) [Example 71, 4-(2-Chlorophenyl)-3-ethoxycarbonyl-5-methoxycarbonyl-6-methyl-2-[2-(thiazol-2-ylamino)ethoxymethyl]-1,4-dihydropyridine]
44.7	CCOC(=O)C1=C(COCCNc2cc(=O)[nH]cn2)NC(C)=C(C(=O)OC)C1c1cccc(C(F)(F)F)c1Cl (centres unmarked) [Example 60]
15.8	CCOC(=O)C1=C(COCCNc2nc(-c3ccccn3)cc(=O)[nH]2)NC(C)=C(C(=O)OC)C1c1cccc(Cl)c1Cl (centres unmarked) [Example 44]
25.1	CCOC(=O)C1=C(COCCNc2n[s+]([O-])nc2OC)NC(C)=C(C(=O)OC)C1c1ccccc1Cl (centres unmarked) [Example 65]
13.1	CCOC(=O)C1=C(COCCNc2nc3cc(OC)c(OC)cc3c(=O)[nH]2)NC(C)=C(C(=O)OC)C1c1ccccc1Cl (centres unmarked) [Example 17]
11.5	CCOC(=O)C1=C(COCCNc2noc(N)n2)NC(C)=C(C(=O)OC)C1c1ccccc1Cl (centres unmarked) [Example 6, 2-[2-(5-Amino-1,2,4-oxadiazol-3-ylamino)ethoxymethyl]-4-(2-chlorophenyl)-3-ethoxycarbonyl-5-methoxycarbonyl-6-methyl-1,4-dihydropyridine]
3160	CCOC(=O)C1=C(COCCNc2cc(Cl)ncn2)NC(C)=C(C(=O)OC)C1c1cccc(Cl)c1Cl (centres unmarked) [Example 53]
9.33	CCOC(=O)C1=C(COCCNC2=NCCS2)NC(C)=C(C(=O)OC)C1c1ccccc1Cl (centres unmarked) [Example 70, 4-(2-Chlorophenyl)-3-ethoxycarbonyl-5-methoxycarbonyl-6-methyl-2-[2-(2-thiazolin-2-ylamino)ethoxymethyl]-1,4-dihydropyridine]
1.25	CCOC(=O)C1=C(COCCNc2ccc(S(=O)(=O)N(C)C)cn2)NC(C)=C(C(=O)OC)C1c1cccc(Cl)c1Cl (centres unmarked) [Example 47]
20	CCOC(=O)C1=C(COCCNc2nc(N)n[nH]2)NC(C)=C(C(=O)OC)C1c1ccccc1Cl (centres unmarked) [Example 1B, 2-[2-(3-Amino-1H-1,2,4-triazol-5-ylamino)ethoxymethyl]-4-(2-chlorophenyl)-3-ethoxycarbonyl-5-methoxycarbonyl-6-methyl-1,4-dihydropyridine]
100	CCOC(=O)C1=C(COCCNc2nccnc2N2CCOCC2)NC(C)=C(C(=O)OC)C1c1ccccc1Cl (centres unmarked) [Example 87]
3.16	CCOC(=O)C1=C(COCCNc2cc(N3CCN(C)CC3)ncn2)NC(C)=C(C(=O)OC)C1c1cccc(Cl)c1Cl (centres unmarked) [Example 81]
1.9	CCOC(=O)C1=C(COCCNc2ccncn2)NC(C)=C(C(=O)OC)C1c1ccccc1Cl (centres unmarked) [Example 10]
13.1	CCOC(=O)C1=C(COCCNc2n[s+]([O-])nc2N)NC(C)=C(C(=O)OC)C1c1ccccc1Cl (centres unmarked) [Example 68]
2.29	CCOC(=O)C1=C(COCCNc2nc(N)n[nH]2)NC(C)=C(C(=O)OC)C1c1cccc(C(F)(F)F)c1Cl (centres unmarked) [Example 2, 2-[2-(3-Amino-1H-1,2,4-triazol-5-ylamino)ethoxymethyl]-4-(2-chloro-3-trifluoromethylphenyl)-3-ethoxycarbonyl-5-methoxycarbonyl-6-methyl-1,4-dihydropyridine]
